# Results published in US4978665A, “3(2H)pyridazinone, and antagonistic agent against SRS-A containing it” (Nissan Chemical Industries Ltd., priority 1987, dated 1990).
# Key:
# [1] = system: LTD4; assay: LTD4 antagonism in guinea-pig trachea (in vitro test); format: cell-based; conditions: Cavia porcellus, 0.5 h, LTD4 2×10^-8 g/ml, isolated guinea-pig trachea; for inhibition at 1 µg/mL: 10^-6 g/ml test compound; for inhibition at 0.1 µg/mL: 10^-7 g/ml test compound, read-out: LTD4 Antagonism (%) (in parenthesis)
# Procedure: (§1) SRS-A is a mixture of leukotriene C4 (hereinafter referred to as LTC4), leukotriene D4 (hereinafter referred to as LTD4), leukotriene E4 (hereinafter referred to as LTE4) and the like. Accordingly, antagonistic activities against SRS-A can be evaluated by one of the following two test methods:
# LTD4 antagonism in guinea-pig trachea
# Antagonism for LTD4 was determined in isolated male guinea-pig (300-400 g) trachea prepared as spiral strip. Tracheal preparations were suspended under 1 g tension in 10 ml organ baths containing 5 μM of indomethacin and they were incubated for 1 hr prior to use. Contractile responses to LTD4 (2×10^-8 g/ml) were obtained after the maximal response to histamine (10^- 4 M). Test compounds dissolved in 100% dimethyl sulfoxide were added to the organ baths (final concentration of 10^-6 g/ml or 10^-7 g/ml) 30 min prior to LTD4 addition, and then contractile responses to LTD4 were compared with those of control which was obtained from a paired trachea in the absence of test compounds. LTD4 -induced contractions were expressed as a percentage of the maximal response to histamine. The antagonism was determined as follows:
# Antagonism (%)=(1.0 - % contraction in test/% contraction in control)×100
# In parenthesis in Table 2, LTD4 antagonisms by test compounds at a concentration of 10^-7 g/ml are shown.
# [2] = system: SRS-A; assay: Effect on anaphylactic bronchoconstriction mediated by endogeneously liberated SRS-A in passively sensitized guinea-pig (in vivo test); conditions: for Inhibition (%) of bronchoconstriction: 2 hrs before EA challenge; for inhibitory effects over the control (in words): oral administration, doses of Table 3, P<0.05
# Source text: as §1
# Effect on anaphylactic bronchoconstriction mediated by endogeneously liberated SRS-A in passively sensitized guinea-pig
# Male guinea-pigs (350-450 g) were passively sensitized with intravenous (i.v.) injection of 0.125 ml rabbit anti-EA (egg albumin) serum (Capple Laboratories) 1 to 2 days preceding the experiment. Antigen-induced anaphylactic bronchoconstrictions mediated by endogeneously liberated SRS-A were measured by modified method of Konzett and Rossler (Arch. Exp. Path. Pharmak., 195, 71, 1940). Sensitized guinea-pigs were anaesthetized with intraperitoneal injection of urethane (1.5 g/kg). The right jugular vein was cannulated for the administration of the all agents and trachea was cannulated to record total pulmonary resistance. Guinea-pigs were artificially ventilated by a small animal respirator (Shinano, Model SN-480-7) set at a stroke volume of 4.5 ml and a rate of 50 breaths per min. The change in pulmonary resistance was measured with a pressure transducer (Nihon Kohden, Model TP-602T) connected to a T-tube on the tracheal cannula. The increase in air overflow volume was expressed as a percentage of the maximum bronchoconstriction obtained by clamping off the trachea. Following surgical preparation, the animals were pretreated with indomethacin (2 mg/kg, 10 min), pyrilamine (2 mg/kg, 6 min) and propranolol (0.1 mg/kg, 5 min) prior to the EA challenge (0.2 mg/kg). All test compounds were administered orally 2 hrs before the EA challenge. Inhibition (%) of bronchoconstriction was determined as follows: Inhibition (%)=(1.0 - % maximum bronchoconstriction in test/% maximum bronchoconstriction in control)×100. The maximum bronchoconstriction was 62±6% (Mean±S.E.M; n=6) and the number of test animals was 5-6.
# [3] = Acute toxicity test (lethal ratio, oral); format: in vivo, CD-1(ICR) strain male mice; conditions: 1200 mg/kg oral; 7 days after administration; experimental number 5
# Procedure: The lethal ratio was determined in CD-1(ICR) strain male mice (5 weeks old) at 7 days after the oral administration of test compounds.
Compound,inhibition at 1 µg/mL [1] [%],further results
COc1ccc(CN(C)c2cn[nH]c(=O)c2Br)cc1OCCc1ccccc1 [compound 10],66,
CCOc1cc(CNc2c(OC(C)c3ccccc3)n[nH]c(=O)c2Cl)ccc1OC (stereo not drawn) [Compound No. 91],100,inhibition at 0.1 µg/mL [1]: 76%
"CCCOc1cc(CNc2c(OCC)nn(CC)c(=O)c2Cl)ccc1OC [Compound No. 50, 2-ethyl-4-chloro-5-(3-n-propoxy-4-methoxybenzylamino)-6-ethoxy-3(2H)pyridazinone]",95,
CCCCOc1cc(CNc2c(OC(C)C)n[nH]c(=O)c2Cl)ccc1OC [Compound No. 69],100,inhibition at 0.1 µg/mL [1]: 83%; Inhibition (%) of bronchoconstriction ([2]; 30 mg/kg orally): 52%; inhibitory effects over the control (in words) [2]: significant inhibitory effects; Lethal ratio: Death number [3]: 0
C=CCOc1nn(CC)c(=O)c(Cl)c1NCc1ccc(OC)c(OCCC)c1 [compound 54],95,
CCCOc1cc(CNc2c(OCC)nn(C(C)C)c(=O)c2Cl)ccc1OC [compound 77],50,
C=C(C)COc1nn(CC)c(=O)c(Br)c1NCc1ccc(OC)c(OCC)c1 [compound 61],96,
CCCOc1cc(CNc2c(OCC)n[nH]c(=O)c2Cl)ccc1OC [compound 66],100,inhibition at 0.1 µg/mL [1]: 48%
CCOc1cc(CNc2c(OC(C)C)n[nH]c(=O)c2Cl)ccc1OC [compound 65],96,
C=CCOc1nn(CC)c(=O)c(Cl)c1NCc1ccc(OC)c(OCC)c1 [compound 55],81,
CCCCOc1cc(CN(C)c2cn[nH]c(=O)c2Cl)ccc1OC [Compound No. 7],50,
CCCOc1cc(CNc2c(OC(C)C)nn(C(C)C)c(=O)c2Cl)ccc1OC [compound 78],56,
"CCCSc1n[nH]c(=O)c(Cl)c1NCc1ccc(OC)c(OC)c1 [Compound No. 92, 4-chloro-5-(3,4-dimethoxybenzylamino)-6-n-propylmercapto-3(2H)pyridazinone]",63,
COc1ccc(CNc2c(OC(C)C)n[nH]c(=O)c2Cl)cc1OC [compound 63],92,
CCOc1cc(CN(C)c2c(OCC)nn(CC)c(=O)c2Br)ccc1OC [compound 74],100,
CCOc1cc(CN(C)c2c(OC)nn(CC)c(=O)c2Br)ccc1OC [compound 73],100,
CCOc1cc(CNc2c(OC(C)C)nn(CC)c(=O)c2Br)ccc1OC [Compound No. 52],100,
CC=CCOc1nn(CC)c(=O)c(Br)c1NCc1ccc(OC)c(OCC)c1 [compound 60],100,inhibition at 0.1 µg/mL [1]: 38%
CCOc1cc(CNc2c(OC)nn(CC)c(=O)c2Br)ccc1OC [compound 47],79,
"CCCCOc1cc(CNc2c(N)n[nH]c(=O)c2Br)ccc1OC [Compound No. 30, 4-bromo-5-(3-n-butoxy-4-methoxybenzylamino)-6-amino-3(2H)pyridazinone]",38,
COc1ccc(CNc2c(OC(C)c3ccccc3)n[nH]c(=O)c2Cl)cc1OC (stereo not drawn) [compound 90],96,inhibition at 0.1 µg/mL [1]: 70%
"CCCOc1cc(CNc2c(Cl)n[nH]c(=O)c2Cl)ccc1OC [Compound No. 71, 4,6-dichloro-5-(3-n-propoxy-4-methoxybenzylamino)-3(2H)pyridazinone]",66,
C#CCOc1nn(CC)c(=O)c(Br)c1NCc1ccc(OC)c(OCC)c1 [compound 58],100,inhibition at 0.1 µg/mL [1]: 40%
CCOc1cc(CNc2c(OC)nn(CC)c(=O)c2Cl)ccc1OC [compound 45],50,
CCCCCCOc1cc(CNc2c(OC(C)C)n[nH]c(=O)c2Cl)ccc1OC [compound 72],75,

Compound,inhibition at 1 µg/mL [1] [%],further results
C=CCOc1nn(C(C)C)c(=O)c(Cl)c1NCc1ccc(OC)c(OCCC)c1 [compound 79],79,
CCC(C)Oc1n[nH]c(=O)c(Cl)c1NCc1ccc(OC)c(OC)c1 (stereo not drawn) [Compound No. 89],96,inhibition at 0.1 µg/mL [1]: 55%
CCCCCCOc1cc(CNc2c([N+](=O)[O-])n[nH]c(=O)c2Br)ccc1OC [Compound No. 33],93,
CCCOc1cc(CNc2c(OCc3ccccc3)nn(CC)c(=O)c2Cl)ccc1OC [compound 75],77,
CCCOc1cc(CNc2c(OC(C)C)n[nH]c(=O)c2Cl)ccc1OC [Compound No. 67],100,inhibition at 0.1 µg/mL [1]: 82%
COc1ccc(CNc2c(OCc3ccccc3)n[nH]c(=O)c2Cl)cc1OC [compound 85],85,
"CCCc1c(OCC(O)COc2ccc3c(=O)cc(C(=O)O)oc3c2CCC)ccc(C(C)=O)c1O (stereo not drawn) [FPL-55712, reference compound]",94,inhibition at 0.1 µg/mL [1]: 48%
CCOc1cc(CNc2c(OC(C)C)nn(CC)c(=O)c2Cl)ccc1OC [Compound No. 51],94,
"CCCOc1cc(CNc2c(N)n[nH]c(=O)c2Cl)ccc1OC [Compound No. 23, 4-chloro-5-(3-n-propoxy-4-methoxybenzylamino)-6-amino-3(2H)pyridazinone]",51,
CCCOc1cc(CN(C)c2cn[nH]c(=O)c2Cl)ccc1OC [Compound No. 5],54,
CCOc1cc(CNc2c(Cl)n[nH]c(=O)c2Cl)ccc1OC [compound 70],66,
C=CCOc1nn(CC)c(=O)c(Br)c1NCc1ccc(OC)c(OCC)c1 [Compound No. 56],100,inhibition at 0.1 µg/mL [1]: 51%
COc1ccc(CNc2c(SCC(C)C)n[nH]c(=O)c2Cl)cc1OC [compound 94],68,
CCCOc1cc(CNc2c([N+](=O)[O-])n[nH]c(=O)c2Br)ccc1OC [compound 27],72,
CCOc1n[nH]c(=O)c(Cl)c1NCc1ccc(OC)c(OC)c1 [compound 84],59,
CCOc1cc(CNc2c(OC)n[nH]c(=O)c2Cl)ccc1OC [compound 80],100,
CCOc1cc(CNc2c(OCC)nn(CC)c(=O)c2Br)ccc1OC [Compound No. 48],99,
"CCCOc1cc(CNc2c([N+](=O)[O-])n[nH]c(=O)c2Cl)ccc1OC [Compound No. 22, 4-chloro-5-(3-n-propoxy-4-methoxybenzylamino)-6-nitro-3(2H)pyridazinone]",59,
CCOc1cc(CNc2c(OCC)n[nH]c(=O)c2Cl)ccc1OC [compound 64],90,
CCOc1cc(CNc2c(OCC)nn(CC)c(=O)c2Cl)ccc1OC [compound 46],73,
COc1ccc(CNc2c([N+](=O)[O-])n[nH]c(=O)c2Cl)cc1OCCc1ccccc1 [compound 36],70,
CCCOc1cc(CNc2c(OC(C)C)nn(CC)c(=O)c2Cl)ccc1OC [Compound No. 53],100,
"CCCCOc1cc(CNc2c(OCC)n[nH]c(=O)c2Cl)ccc1OC [Compound No. 68, 4-chloro-5-(3-n-butoxy-4-methoxybenzylamino)-6-ethoxy-3(2H)pyridazinone]",92,Inhibition (%) of bronchoconstriction ([2]; 10 mg/kg orally): 63%; Inhibition (%) of bronchoconstriction ([2]; 30 mg/kg orally): 51%; inhibitory effects over the control (in words) [2]: significant inhibitory effects; Lethal ratio: Death number [3]: 0
CCOc1cc(CNc2c(OCc3ccccc3)n[nH]c(=O)c2Cl)ccc1OC [compound 86],100,inhibition at 0.1 µg/mL [1]: 48%
CCCOc1cc(CNc2c(OCCC)nn(CC)c(=O)c2Cl)ccc1OC [compound 57],100,inhibition at 0.1 µg/mL [1]: 37%
